Assay results published in patent publication US20260216238A1, “TETRATHIOMOLYBDIC ACID FOR USE IN TREATING COPPER METABOLISM-ASSOCIATED DISEASES OR DISORDERS (WILSON DISEASE)” (Alexion Pharmaceuticals, Inc., priority 2023, published 2026).
Where two headings read alike, the source gives them in different places.

Legend:
[1] = tested on: patients with Wilson disease (WD); assay: UWDRS Part III minimal clinically important difference (MCID) responders and net promoter score; assay type: in vivo, human
Source text: To calculate net promoter scores, minimal clinically important differences (MCID) were first defined.
Therefore, distribution-based methods were used to compute MCID threshold, half standard deviation (SD), and standard error of measurement (SEM) for the full Study 301 population and the Subpart E population. […] The difference between those two proportions represented the “net promoter score.”

[2] = tested on: participants with cirrhosis at baseline
Source text: Study 205 is registered with ClinicalTrials.gov, number NCT04422431, and incorporated by reference in its entirety.

[3] = tested on: patients with Wilson disease (WD); assay: Study 301: adverse events in participants who switched from SoC to TTM in the Extension Period; settings: SoC: Weeks 0-48, N=70; TTM after switch: Weeks 49-96, N=61
[4] = tested on: patients with Wilson disease (WD); assay type: in vivo
Source text: Adverse events were reported by the patient (or, when appropriate, by a caregiver, surrogate, or the patient's legally authorized representative). The Investigator and any qualified designees were responsible for detecting, documenting, and recording events that meet the definition of an AE or SAE and remain responsible for following up AEs that were serious, considered related to the study intervention or study procedures, or that caused the patient to discontinue the study.
The safety analysis was performed on the Safety Analysis Set. This dataset includes all patients who received at least 1 dose of randomized treatment. Patients were summarized according to the treatment actually received.
Acute worsening of neurologic symptoms typically within 6 months of start of therapy is a known complication associated with chelation therapy for WD. […] Neurologic AESI for Study 301 were considered as all AEs in the Medical Dictionary for Regulatory Activities (MedDRA) System Organ Class (SOC) “Nervous system disorders” or any other AE judged by the Investigator as an AESI.

patients with WD = settings: cited from earlier work
[5] = tested on: patients with Wilson disease (WD); assay: Clinical Global Impression-Severity scale (CGI-S); assay type: in vivo, human; settings: for CGI-S (1 to 7, 1 is normal) change from baseline, LSM / CGI-S (1 to 7, 1 is normal) change from baseline, Mean: Study 301 TTM long term set
Source text: Clinical Global Impression-[…]: The Clinical Global Impression (CGI) rating scales were commonly used measures of symptom severity, treatment response, and the efficacy of treatments in treatment studies of adult and pediatric patients with mental disorders.
The Clinical Global Impression-Severity scale (CGI-S) is a 7-point scale that requires the clinician to rate the severity of the patient's illness at the time of assessment, relative to the clinician's past experience with patients who have the same diagnosis. Considering total clinical experience, a patient was assessed on severity of illness at the time of rating as: 1, normal, not at all ill; 2, borderline ill; 3, mildly ill; 4, moderately ill; 5, markedly ill; 6, severely ill; or 7, extremely ill.

[6] = tested on: patients with Wilson disease (WD)
Procedure: This assessment is also applicable to SoC treatments. In addition, plasma Cp, CpC, plasma total copper, and LBC were measured with AUEC calculated for plasma total copper and LBC.
The LBC method measures exchangeable plasma copper that is not bound to either Cp or TPC.
Pharmacodynamics: Blood samples were collected to directly measure plasma total copper, PUF copper, dNCC, and LBC. Calculations may be performed for cNCC and cNCCcorrected, the latter of which is non-ceruloplasmin-bound and non-molybdenum-albumin-bound copper.

[7] = Primary Evaluation Period, 48 Weeks
[8] = Subpopulation E, Baseline, TTM N=104, SoC N=56
[9] = Subpopulation E, Week 48, TTM N=89, SoC N=47

## bis-choline tetrathiomolybdate [TTM]
[1]; Study 301, by 48 weeks
  patients improved by ≥5 points in UWDRS Part III: 44.8%
[1]; improving minus worsening
  UWDRS Part III SD MCID Achievers, Net Promoter Score: 16%
  UWDRS Part III SE MCID Achievers, Net Promoter Score: 20%
[1]; in vivo
  UWDRS Part III SD MCID Achievers, Improving: 22%
  UWDRS Part III SD MCID Achievers, Worsening: 6%
  UWDRS Part III SE MCID Achievers, Improving: 28%
  UWDRS Part III SE MCID Achievers, Worsening: 8%
[1]; incomplete and/or intolerant subgroup, 48 weeks
  patients improved at 4-point change threshold in UWDRS Part III: 43.1%
[2]; in vivo
  participants with cirrhosis at baseline who maintained liver function (albumin levels): 87%
[2]; of the 13 who experienced changes in liver function
  cirrhotic participants whose albumin levels returned to the normal range: 7 participants
[3]
  Musculoskeletal and connective tissue disorders, E (events): 7
  Musculoskeletal and connective tissue disorders, participants with AE: 7 (11.5) N (%)
[4]; Primary Evaluation Period
  AEs in SOC Ear and labyrinth disorders: 5.1%
  AEs in SOC Hepatobiliary disorders: 6.6%
  AEs in SOC Investigations: 33.6%
  AEs in SOC Psychiatric disorders: 19.0%
  AEs in SOC Skin and subcutaneous tissue disorders: 21.9%
  incidence of SAEs, Nervous system disorders: 4.4%
  incidence of headache: 8.0%
  incidence of tremor: 7.3%
  participants with highest severity Grade 1 AEs, Nervous system disorders: 24.1%
  participants with highest severity Grade 2 AEs, Nervous system disorders: 13.9%
[4]; [7]
  Alanine aminotransferase increased AE, % participants: 14.6%
  Alanine aminotransferase increased AE, N participants: 20
  Aspartate aminotransferase increased AE, % participants: 2.9%
  Aspartate aminotransferase increased AE, N participants: 4
  Ear and labyrinth disorders (SOC) AE, % participants: 5.1%
  Ear and labyrinth disorders (SOC) AE, N participants: 7
  Fatigue AE, % participants: 9.5%
  Fatigue AE, N participants: 13
  Gamma-glutamyltransferase increased AE, % participants: 2.2%
  Gamma-glutamyltransferase increased AE, N participants: 3
  Hepatic enzyme increased AE, % participants: 2.2%
  Hepatic enzyme increased AE, N participants: 3
  Hepatobiliary disorders (SOC) AE, % participants: 6.6%
  Hepatobiliary disorders (SOC) AE, N participants: 9
  Investigations (SOC) AE, % participants: 33.6%
  Investigations (SOC) AE, N participants: 46
  Nervous system disorders (SOC) AE, % participants: 34.3%
  Nervous system disorders (SOC) AE, N participants: 47
  Neutrophil count decreased AE, % participants: 1.5%
  Neutrophil count decreased AE, N participants: 2
  Pruritus AE, % participants: 3.6%
  Pruritus AE, N participants: 5
  Psychiatric disorders (SOC) AE, % participants: 19.0%
  Psychiatric disorders (SOC) AE, N participants: 26
  Pyrexia AE, % participants: 5.8%
  Pyrexia AE, N participants: 8
  Rash AE, % participants: 6.6%
  Rash AE, N participants: 9
  Skin and subcutaneous tissue disorders (SOC) AE, % participants: 21.9%
  Skin and subcutaneous tissue disorders (SOC) AE, N participants: 30
  incidence of AEs in SOC Nervous system disorders: 34.3%
[4]; cohort 1 incomplete response or intolerant
  patients with neurologic AEs: 31.8%
[4]; seven events in 5 participants
  participants with neurologic AESI in SOC Psychiatric disorders: 3.6%
Patients with WD; Study 201, Week 24, p<0.0001
  reduction of mean serum cNCCcorrected compared with baseline: 72%
Patients with WD; human, in vivo
  patients with reversible liver function test elevations: 39%
[5]; Study 301 Full Analysis Set
  CGI-S (1-7, 1 is normal), Change from Baseline at 48 weeks, LSM: −0.3
  CGI-S (1-7, 1 is normal), Change from Baseline at 48 weeks, Mean: −0.5
[5]; [8]
  CGI-S, Max: 6
  CGI-S, Mean: 2.9
  CGI-S, Min: 1,
[5]; Subpopulation E, Week 48
  CGI-S, Change from Baseline, LSM: −0.4
  CGI-S, Change from Baseline, LSM Diff (SE) (TTM vs SoC): −0.2 (0.13)
[5]; [9]
  CGI-S, Change from Baseline, Max: 1
  CGI-S, Change from Baseline, Mean: −0.4
  CGI-S, Change from Baseline, Median: 0.0
  CGI-S, Change from Baseline, Min: −3,
  CGI-S, Change from Baseline, Q1: −1.0,
  CGI-S, Change from Baseline, Q3: 0.0
[5]; TTM vs SoC, P 0.2290
  CGI-S, Difference at 48 weeks, LSM: −0.2
[5]; Week 24
  CGI-S (1 to 7, 1 is normal) change from baseline, LSM: −0.3
  CGI-S (1 to 7, 1 is normal) change from baseline, Mean: −0.2
[5]; Week 48
  CGI-S (1 to 7, 1 is normal) change from baseline, LSM: −0.4
  CGI-S (1 to 7, 1 is normal) change from baseline, Mean: −0.5
[5]; Week 72
  CGI-S (1 to 7, 1 is normal) change from baseline, LSM: −0.5
  CGI-S (1 to 7, 1 is normal) change from baseline, Mean: −0.6
[5]; Week 96
  CGI-S (1 to 7, 1 is normal) change from baseline, LSM: −0.5
  CGI-S (1 to 7, 1 is normal) change from baseline, Mean: −0.6
[5]; Week 120
  CGI-S (1 to 7, 1 is normal) change from baseline, LSM: −0.7
  CGI-S (1 to 7, 1 is normal) change from baseline, Mean: −0.6
[5]; Week 144
  CGI-S (1 to 7, 1 is normal) change from baseline, LSM: −0.6
  CGI-S (1 to 7, 1 is normal) change from baseline, Mean: −0.6
[6]; Adolescent
  AUEC(0-48 week) LBC, Mean: 1.5 mmol/L
  AUEC(0-48 week) LBC, Median: 1.2 mmol/L
  AUEC(0-48 week) PTC (plasma total copper), Mean: 7.5 mmol/L
  AUEC(0-48 week) PTC (plasma total copper), Median: 5.4 mmol/L
  AUEC(0-48 week) dNCC, Mean: 2.7 mmol/L
  AUEC(0-48 week) dNCC, Median: 2.3 mmol/L
[6]; Adult
  AUEC(0-48 week) LBC, Mean: 1.8 mmol/L
  AUEC(0-48 week) LBC, Median: 1.2 mmol/L
  AUEC(0-48 week) PTC (plasma total copper), Mean: 7.8 mmol/L
  AUEC(0-48 week) PTC (plasma total copper), Median: 7.3 mmol/L
  AUEC(0-48 week) dNCC, Mean: 3.2 mmol/L
  AUEC(0-48 week) dNCC, Median: 2.2 mmol/L
